Source: patent US4315010A, “Glaucine phosphate salts” (priority 1979, dated 1982)
Where a name gives a salt, the structure may show the parent alone. Read-outs that look alike come from different tables or passages of the source.

Assays:
[1] = Plasma concentrations of l- or d-glaucine after oral administration; type: in vivo; conditions: guinea pigs
Description: In other operations, l- and d-glaucine phosphate (2:3) were orally administered to separate guinea pigs and plasma concentrations of l- or d-glaucine were measured at intervals after dosing.

guinea pigs [2] = assay: Antitussive test, citric acid aerosol-induced cough, oral dosing; type: in vivo; conditions: for ED50: Cavia porcellus, po, 1 h; for 95 percent confidence limits of the ED50: antitussive
Description: Separate groups of guinea pigs were orally administered various doses of a test compound, or distilled water for a control group. One hour after oral dosing, the guinea pigs were exposed to a 5 percent aerosol of citric acid for a 10 minute test period. The number of cough responses produced during the last five minutes of exposure to the citric acid aerosol was recorded and the dosage effect to suppress coughing in 50 percent of the guinea pigs (ED50) was calculated. An antitussive effect was recorded for a guinea pig when its total number of coughs during the 5 minute test period were at least two standard deviation units below the mean number of coughs per guinea pig in the control group. […];

monkeys = assay: Abuse potential, self-administration in codeine-habituated monkeys (Deneau et al.); type: in vivo; conditions: codeine 100 micrograms/kilogram per injection; d,l-glaucine phosphate substituted at 50, 100, 200 and 400 micrograms per kilogram injection
Description: The abuse potential of d,l-glaucine phosphate was studied in two monkeys in a procedure similar to that described by Deneau, et al., Psychopharmacologia 16(1):30-48, 1969.
In this procedure, the test monkeys are restrained and a catheter inserted into the external jugular vein for injection of test substances in response to pressing a bar lever by the monkey. The test monkeys are first habituated to self-administer codeine at a rate of 100 micrograms/kilogram per injection. The self-administration rate of the two monkeys so trained and habituated was about 100 to 150 lever pushes per two hour session at the 100 microgram codeine level. […]

mice [3] = type: in vivo; conditions: naloxone 100 mg/kg intraperitoneal after last dose
Description: Physical dependency liability was evaluated in mice by the procedure of Saelens, et al., Arch. Int. Pharmacodynam, 190:213-218, 1971. In this procedure, mice are administered increasing doses of a test compound at intervals on two consecutive days. The last dosage on the second day is followed by intraperitoneal injection of the morphine antagonist, naloxone, at a dosage of 100 mg/kg, and the mice are observed for characteristic jumping behaviour indicative of opiate withdrawals or morphine antagonism.

[4] = type: physicochemical; conditions: for Percentage Remaining after 3 months at, 40° C. / Percentage Remaining after 3 months at, 50° C. / Percentage Remaining after 3 months at, Ambient / assay after 12 months: syrup; for Percentage Remaining after 3 months at, 40° C. / Percentage Remaining after 3 months at, 50° C. / Percentage Remaining after 3 months at, Ambient: 131400 min; for percent of original concentration retained in syrup: one month, d,l-glaucine phosphate 0.6 percent, others 0.2 percent, 43800 min; for assay after 12 months: 525600 min
Description: Stability of d,l-glaucine phosphate was examined in the syrup vehicle of Example 4.
Syrups containing codeine phosphate, 0.2 percent contained 97.5, 104.5 or 100 percent, respectively, after one month at ambient temperature, 40° C. or 55° C. […] After three months, the percentage amount of antitussive agent remaining was as shown below.

[5] = Therapeutic ratio LD50/ED50; type: in vivo; conditions: mouse LD50, guinea pig ED50
[6] = Stability of syrup under continuous light in amber and flint glass bottles; type: physicochemical; conditions: one month, ambient temperature, continuous light about 2000 Foot-candles, 43800 min
Description: In a procedure similar to that of Example 5, syrup formulations were prepared, placed in amber glass bottles and transparent (flint) glass bottles, and held under conditions of ambient temperature with continuous exposure to light. (About 2000 Foot-candles of combined fluorescent and incandescent light, for 24 hours/day.)

mice [7] = assay: Analgesic activity, phenyl-p-quinone mouse writhing test (printed "writing test"); type: in vivo; conditions: 0.5 h, oral, 30 minutes prior to phenyl-p-quinone challenge
Description: Text compounds were evaluated for analgesic activity in the phenyl-p-quinone mouse writing test of Hendershot & Forsaith, J. Pharmacol. Exptl. Therap. 125(3) 237 (1959). The test compounds were administered orally 30 minutes prior to the phenyl-p-quinone challenge. In these operations, the oral ED50 's for d-glaucine. […]

Acute lethality in mice = conditions: mouse, in vivo, oral, mortality within 72 hours
Description: In other operations, various dosages of d,l-glaucine phosphate (2:3) were administered to groups mice by the oral route or by intraperitoneal injection, and the dosage which is lethal to 50 percent of the mice (LD50) was calculated from the mortality observations within 72 hours after administration.

[8] = Solubility in cough syrup vehicle; type: physicochemical; conditions: cough syrup vehicle of Example 4
Description: A cough syrup vehicle formulation was prepared containing the following pharmaceutically-acceptable excipients:
Water g.s. to 4 liters total

guinea pigs [9] = assay: Antitussive test, citric acid aerosol-induced cough, intraperitoneal injection; type: in vivo; conditions: Cavia porcellus, ip
[10] = listed as d,1-Glaucine . HBr, hydrobromide

COc1cc2c(cc1OC)-c1c(OC)c(OC)cc3c1[C@@H](C2)N(C)CC3 [l-glaucine phosphate, l-glaucine phosphate (2:3)]
time within which high plasma levels of glaucine were produced [1]: ≤ 15 min | ED50 (guinea pigs [2]; one hour before 5 percent citric acid aerosol, read-out: ED50, dosage effect to suppress coughing in 50 percent of the guinea pigs): 10.9 mg/kg | 95 percent confidence limits of the ED50 (guinea pigs [2]): 0.4-33.8 milligrams per kilogram

COc1ccc2c3c1O[C@H]1[C@@H](O)C=C[C@H]4[C@@H](C2)N(C)CC[C@@]341 [codeine, reference compound]
monkey response rate (self-administration) (monkeys): 100-150 responses/two hour session

COc1ccc2c3c1O[C@H]1[C@@H](O)C=C[C@H]4[C@@H](C2)N(C)CC[C@@]341 [codeine phosphate]
mice jumping after naloxone treatment (mice [3]): 2 of 6 | total jumps after naloxone treatment (mice [3]): 23 jumps total | Percentage Remaining after 3 months at, 40° C. ([4]; 40° C.): 101.1 Percentage | Percentage Remaining after 3 months at, 50° C. [4]: 88.4 Percentage | Percentage Remaining after 3 months at, Ambient [4]: 101.3 Percentage | percent of original concentration retained in syrup ([4]; 40° C.): 104.5% | percent of original concentration retained in syrup ([4]; 55° C.): 100% | percent of original concentration retained in syrup ([4]; ambient temperature): 97.5% | 95 percent confidence limits of the ED50 (guinea pigs [2]): 52.3-232.6 milligrams per kilogram

COc1cc2c(cc1OC)-c1c(OC)c(OC)cc3c1[C@H](C2)N(C)CC3 [d-glaucine phosphate, reference compound]
ED50, dosage effect to suppress coughing in 50 percent of the guinea pigs (guinea pigs [2]; one hour before 5 percent citric acid aerosol, 60 min): 170.1 milligrams per kilogram

COc1cc2c(cc1OC)-c1c(OC)c(OC)cc3c1C(C2)N(C)CC3 (racemic) [d,l-glaucine hydrobromide]
Percentage Remaining after 3 months at, 40° C. ([4]; 40° C., listed as d,1-Glaucine . HBr, hydrobromide): 93.3 Percentage | Percentage Remaining after 3 months at, 50° C. [4, 10]: 91.4 Percentage | Percentage Remaining after 3 months at, Ambient [4, 10]: 100.8 Percentage | assay after 12 months ([4]; 55° C., hydrobromide): 87.3% | percent of original concentration retained in syrup ([4]; 40° C., hydrobromide): 96% | percent of original concentration retained in syrup ([4]; 55° C., hydrobromide): 89.5% | percent of original concentration retained in syrup ([4]; ambient temperature, hydrobromide): 99%

COc1cc2c(cc1OC)-c1c(OC)c(OC)cc3c1C(C2)N(C)CC3 (racemic) [d,l-glaucine phosphate, d,l-Glaucine Phosphate]
monkey response rate (self-administration) (monkeys): 10-20 responses/two hour session | therapeutic ratio (LD50/ED50) ([5]; intraperitoneal): 10 | therapeutic ratio (LD50/ED50) ([5]; oral antitussive activity): 38 | assay of syrup in amber glass bottles ([6]; amber glass): 97.7% | assay of syrup in transparent (flint) glass bottles ([6]; flint glass): 90% | mice jumping after naloxone treatment (mice [3]): no jumping behaviour in any of the eight mice tested | Percentage Remaining after 3 months at, 40° C. ([4]; 40° C.): 101.1 Percentage | Percentage Remaining after 3 months at, 50° C. [4]: 98.7 Percentage | Percentage Remaining after 3 months at, Ambient [4]: 101.6 Percentage | assay after 12 months ([4]; 55° C., listed as phosphate salt): 101.8% | percent of original concentration retained in syrup ([4]; 40° C.): 100.0% | percent of original concentration retained in syrup ([4]; 55° C.): 98.4% | percent of original concentration retained in syrup ([4]; ambient temperature): 101.3% | ED50 (mice [7]): 23 mg/kg | LD50 at 72 h (Acute lethality in mice): ≥ 681 mg/kg | solubility [8]: 10000 µg/mL | solubility in cough syrup vehicle per 5 milliliter dosage unit [8]: about 50 milligrams per 5 milliliter dosage unit | ED50 (guinea pigs [9]): 17.3 mg/kg | ED50 (guinea pigs [2]; restated in the description, read-out: oral ED50, antitussive): 17.8 mg/kg | 95 percent confidence limits of the ED50 (guinea pigs [2]): 6.0-53.1 milligrams per kilogram
